ChEMBL document CHEMBL4706557, “Synthesis and in vitro and in vivo biological evaluation of novel derivatives of flexicaulin A as antiproliferative agents” (Eur J Med Chem, 2020)
Active and inactive are the calls of the source. The rule behind the calls is not given here.

Columns and labels:
[1] = tested on: ECa-109 cell line; experiment: Induction of apoptosis in human EC109 cells assessed as increase in cleaved caspase 3 expression at 3 uM incubated for 24 hrs in presence of N-acetylcysteine by Western blot analysis; assay type: functional, cell-based
[2] = tested on: ECa-109 cell line; experiment: Induction of apoptosis in human EC109 cells assessed as increase in BimL expression after 24 hrs by Western blot analysis; assay type: functional, cell-based
[3] = tested on: ECa-109 cell line; experiment: Induction of apoptosis in human EC109 cells assessed as change in phosphorylated ASK1 expression at 3 uM incubated for 24 hrs in presence of N-acetylcysteine by Western blot analysis; assay type: functional, cell-based
[4] = Toxicity in BALB/c mouse assessed as effect on glomeruli in kidney at 20 to 40 mg/kg, ip administered once daily for 14 days by HE staining based assay; assay type: organism-based; conditions: in vivo, 336 h, dose 20-40 mg/kg, time 14 day
[5] = tested on: ECa-109; experiment: Inhibition of clone formation in human EC109 cells at 0.5 uM after 7 days in presence of N-acetylcysteine by crystal violet staining based assay; assay type: functional, cell-based; conditions: time 7.0 day
[6] = Toxicity in BALB/c mouse assessed as MCV at 20 mg/kg, ip administered once daily for 14 days (reference value: 49.90 +/- 0.37 fL); assay type: organism-based; conditions: in vivo, 336 h, time 14 day
[7] = tested on: ECa-109 cell line; experiment: Antiproliferative activity against human EC109 cells assessed as inhibition of cell growth at 0.06 to 4 uM preincubated with N-acetylcysteine for 4 hrs followed by compound addition and measured after 24 hrs by SRB assay; assay type: functional, cell-based; conditions: dose 0.06-4 µM
[8] = tested on: ECa-109 cell line; experiment: Induction of apoptosis in human EC109 cells assessed as increase in cytochrome C protein expression incubated for 24 hrs by Western blot analysis; assay type: functional, cell-based
[9] = tested on: ECa-109 cell line; experiment: Induction of apoptosis in human EC109 cells assessed as activation of c-jun phosphorylation at Ser63 residue at 0.75 to 3 uM incubated for 24 hrs by Western blot analysis; assay type: functional, cell-based; conditions: dose 0.75-3 µM
[10] = tested on: ECa-109; experiment: Inhibition of clone formation in human EC109 cells at 0.125 to 0.5 uM after 7 days by crystal violet staining based assay; assay type: functional, cell-based; conditions: dose 0.125-0.5 µM, time 7.0 day
[11] = tested on: ECa-109 cell line; experiment: Induction of morphological changes in human EC109 cells assessed as decrease in number of cells in presence of N-acetylcysteine; assay type: functional, cell-based
[12] = tested on: ECa-109 cell line; experiment: Induction of apoptosis in human EC109 cells assessed as increase in phosphorylated ASK1 expression incubated for 24 hrs by Western blot analysis; assay type: functional, cell-based
[13] = Toxicity in BALB/c mouse assessed as HGB at 20 mg/kg, ip administered once daily for 14 days (reference value: 153.20 +/- 3.87 g/L); assay type: organism-based; conditions: in vivo, 336 h, time 14 day
[14] = tested on: ECa-109 cell line; experiment: Induction of mitochondrial depolarization in human EC-109 cells assessed as depolarized cell population at 1.5 uM measured after 24 hrs by JC1 dye based flow cytometry (reference value: 4.2 %); assay type: functional
[15] = tested on: ECa-109 cell line; experiment: Induction of apoptosis in human EC-109 cells assessed as apoptotic rate at 3 uM after 48 hrs by Annexin V-FITC/propidium iodide staining based flow cytometry (reference value: 3.2 %); assay type: functional
[16] = tested on: ECa-109 cell line; experiment: Induction of apoptosis in human EC-109 cells xenografted in BALB/c mouse assessed as increase in phosphorylated JNK in tumor tissue at 20 to 40 mg/kg, ip QD for 14 days by Western blotting analysis; assay type: functional, organism-based; conditions: dose 20-40 mg/kg, time 14.0 day
[17] = tested on: ECa-109 cell line; experiment: Antiproliferative activity against human EC109 cells assessed as reduction in survival rate at 0 to 8 uM by SRB assay; assay type: functional, cell-based; conditions: dose 0-8 µM, TDE = time-dependent effect
[18] = Toxicity in BALB/c mouse assessed as effect on red pulp and white pulp distribution in spleen at 20 to 40 mg/kg, ip administered once daily for 14 days by HE staining based assay; assay type: organism-based; conditions: in vivo, 336 h, dose 20-40 mg/kg, time 14 day
[19] = tested on: ECa-109 cell line; experiment: Induction of apoptosis in human EC-109 cells xenografted in BALB/c mouse assessed as increase in phosphorylated ASK1 in tumor tissue at 20 to 40 mg/kg, ip QD for 14 days by Western blotting analysis; assay type: functional, organism-based; conditions: dose 20-40 mg/kg, time 14.0 day
[20] = tested on: ECa-109 cell line; experiment: Induction of apoptosis in human EC-109 cells xenografted in BALB/c mouse assessed as change in Bax expression in tumor tissue at 20 mg/kg, ip QD for 14 days by Western blotting analysis relative to control; assay type: functional, organism-based; conditions: time 14.0 day
[21] = tested on: ECa-109 cell line; experiment: Induction of apoptosis in human EC-109 cells xenografted in nude BALB/c mouse assessed as reduction in number of cells at 20 to 40 mg/kg, ip administered once daily for 14 days by H and E staining based histopathological analysis; assay type: functional, organism-based; conditions: dose 20-40 mg/kg, time 14.0 day
[22] = tested on: ECa-109 cell line; experiment: Induction of mitochondrial depolarization in human EC-109 cells assessed as depolarized cell population at 3 uM measured after 24 hrs by JC1 dye based flow cytometry (reference value: 4.2 %); assay type: functional
[23] = tested on: ECa-109 cell line; experiment: Antiproliferative activity against human EC109 cells assessed as reduction in survival rate after 24 to 72 hrs by SRB assay; assay type: functional, cell-based; conditions: time 24-72 hrs
[24] = tested on: ECa-109 cell line; experiment: Induction of apoptosis in human EC109 cells assessed as increase in intracellular ROS level at 3 uM incubated for 24 hrs by DCFH-DA staining based flow cytometry analysis (reference value: 0.6 %); assay type: functional
[25] = tested on: ECa-109 cell line; experiment: Induction of apoptosis in human EC109 cells assessed as increase in cleaved caspase 7 expression after 24 hrs by Western blot analysis; assay type: functional, cell-based
[26] = tested on: ECa-109 cell line; experiment: Induction of apoptosis in human EC-109 cells xenografted in nude BALB/c mouse assessed as apparent cellular loosening at 20 to 40 mg/kg, ip administered once daily for 14 days by H and E staining based histopathological analysis; assay type: functional, organism-based; conditions: dose 20-40 mg/kg, time 14.0 day
[27] = tested on: ECa-109 cell line; experiment: Induction of apoptosis in human EC-109 cells assessed as apoptotic rate at 0.75 uM after 24 hrs by Annexin V-FITC/propidium iodide staining based flow cytometry (reference value: 5.3 %); assay type: functional
[28] = Toxicity in BALB/c mouse assessed as HCT at 40 mg/kg, ip administered once daily for 14 days (reference value: 49.08 +/- 1.56 %); assay type: organism-based; conditions: in vivo, 336 h, time 14 day
[29] = tested on: ECa-109 cell line; experiment: Antitumor activity against human EC109 cells xenografted in BALB/c mouse assessed as reduction in tumor weight at 20 mg/kg, ip administered every day for 14 days; assay type: functional, organism-based; conditions: time 14.0 day
[30] = tested on: GES1; experiment: Cytotoxicity against human GES1 cells assessed as reduction in survival rate after 24 to 72 hrs by SRB assay; assay type: cell-based; conditions: time 24-72 hrs
[31] = tested on: ECa-109 cell line; experiment: Induction of apoptosis in human EC-109 cells assessed as apoptotic rate at 1.5 uM after 24 hrs by Annexin V-FITC/propidium iodide staining based flow cytometry (reference value: 5.3 %); assay type: functional
[32] = tested on: HUVEC; experiment: Cytotoxicity against HUVEC assessed as inhibition of cell growth incubated for 72 hrs by SRB assay; assay type: cell-based; conditions: Homo sapiens
[33] = tested on: ECa-109 cell line; experiment: Induction of apoptosis in human EC-109 cells assessed as apoptotic rate at 3 uM after 24 hrs by Annexin V-FITC/propidium iodide staining based flow cytometry (reference value: 5.7 %); assay type: functional
[34] = tested on: ECa-109 cell line; experiment: Induction of apoptosis in human EC-109 cells assessed as apoptotic rate at 3 uM after 48 hrs by Annexin V-FITC/propidium iodide staining based flow cytometry (reference value: 3.8 %); assay type: functional

C=C1C(=O)[C@@]23[C@H](O)C[C@@H]4C(C)(C)CCC[C@@]4(COC(C)=O)[C@@H]2[C@@H](O)C[C@H]1[C@H]3OC(=O)c1ccc(CCl)cc1
Activity [1]: inactive | Activity [2]: Dose-dependent effect | Activity [3]: inactive | Activity [4]: Non-Toxic | inhibition [5]: inactive | Activity [6]: 49.5 fL | inhibition [7]: inactive | Activity [8]: Dose-dependent effect | Activity [9]: Active | inhibition [10]: Active | Activity [11]: inactive | Activity [12]: Dose-dependent effect | Activity [13]: 147 g/L | Activity [14]: 47.1% | Activity [15]: 97% | Activity [16]: Active | inhibition [17]: Tde | Activity [18]: Non-Toxic | Activity [19]: Active | Activity [20]: inactive | Activity [21]: Active | Activity [22]: 70.7% | inhibition [23]: Dose-dependent effect | Activity [24]: 47% | Activity [25]: Dose-dependent effect | Activity [26]: Active | Activity [27]: 23.3% | Activity [28]: 46.26% | inhibition [29]: Active | inhibition (INH) [30]: Dose-dependent effect | Activity [31]: 28.2% | IC50 [32]: 490 nM | Activity [33]: 33.7% | Activity [34]: 88.2%
